“And” between values parts separate entries of the source, which are not always exact repeats. Identical values can stand only once.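 Where inhibition never reached the appropriate level, the endpoint shown equals the highest concentration tested. Otherwise, values were interpolated linearly from a five-concentration, 48-hour dose response in 96-well plates. Here, GI50 denotes the concentration required for 50% inhibition of growth. TGI denotes the concentration required for complete inhibition of growth.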

The values that follow come from PubChem BioAssay (NCI).

Holding throughout (experiment): growth of human tumour cells (NCI), 48 h
Assay [1] has as its system RPMI-8226 leukemia.
The test system of assay [2] is ACHN renal.
Assay [3] relates to EKVX NSCLC.
Assay [4] concerns BT-549 breast.
The test system of assay [5] is PC-3 prostate.
Assay [6] deals with SK-MEL-5 melanoma.
In assay [7] the test system is COLO 205 colon.
In assay [8] the test system is SR leukemia.
The test system of assay [9] is SNB-75 CNS.
Assay [10] concerns MALME-3M melanoma.

In the case of `COc1cc(C(=O)/C=C/c2c(C(F)(F)F)nc3ccccn23)cc(OC)c1OC`, the GI50 was 2.91 µM in assay [1]; 1.95 µM in assay [2]; 2.37 µM in [3]; 1.64 µM in assay [4]; 3.8 µM in assay [5]; 1.62 µM in assay [6]. The GI50 in [7] is 2.11 µM; in assay [8] it was 1.98 µM; in [9] it was 1.76 µM; in assay [10] it was 1.57 µM. The TGI was over 100 µM in assay [1]; 3.79 µM in assay [2]; 6.78 µM in [3]; 3.95 µM in assay [4]; 32.8 µM in [5]; 3.23 µM in assay [6]. Further, the TGI was 4.36 µM in assay [7], over 100 µM in [8], 3.44 µM in assay [9] and 3.35 µM in [10].

As to `c1ccc(CN2COc3c(ccc4c5c(ccc34)CN(Cc3ccccc3)CO5)C2)cc1`, the TGI in [1], in assay [2], in assay [3], in assay [4], in assay [5] and in assay [6] was over 100 µM in each case. Also, the TGI in [7], in assay [8], in assay [9] and in assay [10] was over 100 µM each time.

With `S=C(NCc1ccc2c(c1)OCO2)N1CCN(c2ncnc3c2oc2ccccc23)CC1`, the GI50 is 6.6 µM in assay [1]; over 63.3 µM in [2]; 3.5 µM in [3]; 26.9 µM in assay [4]; 6.88 µM in [5]; 0.575 µM in [6]. In addition, the GI50 in assay [7] was 66.1 µM; in [8] it was 3.7 µM; in assay [9], over 100 µM; in [10] it was over 100 µM. Besides, the TGI is over 100 µM in [1]; over 100 µM in assay [2]; over 100 µM in assay [3]; over 100 µM in [4]; over 100 µM in assay [5]; 3.28 µM in assay [6]. Besides, the TGI in assay [7], in assay [8], in assay [9] and in assay [10] was over 100 µM throughout.

With `COc1c(OC(C)C)cc2cc(O)c(C(=O)NC3Cc4ccc(c(Cl)n4)O[C@@H]4C=C5C#C/C(=C\C#CC6OC56C4OC4CC(C)(O)C(O)C(C)O4)C(OC4CC(O)C(N(C)C)C(C)O4)COC3=O)cc2c1OC` (stereo partly drawn), the GI50 in assay [1] was 0.348 µg/mL; in assay [2], 9.33 µM and 0.303 µg/mL; in assay [3], > 36.3 µM and 37.5 µg/mL; in assay [6], > 36.3 µM and 0.546 µg/mL; in assay [7] it was > 36.3 µM and 0.345 µg/mL; in assay [8], 8.27 µM and 0.0174 µg/mL. Further, the GI50 in assay [9] is 4.43 µg/mL; in assay [10], 0.533 µg/mL. Moreover, the TGI was 3.67 µg/mL in assay [1]; > 36.3 µM and 5.69 µg/mL in assay [2]; > 36.3 µM and 37.5 µg/mL in assay [3]; over 36.3 µM in assay [4]; over 36.3 µM in assay [5]; > 36.3 µM and 10.1 µg/mL in assay [6]. Also, the TGI is > 36.3 µM and 13.6 µg/mL in [7]; > 36.3 µM and 0.746 µg/mL in [8]; > 36.3 µM and 19.1 µg/mL in [9]; > 36.3 µM and 37.5 µg/mL in assay [10].

`O=C(c1cc(Cc2n[nH]c(=O)c3ccccc23)ccc1F)N1CCN(C(=O)C2CC2)CC1`: the GI50 is 30.5 µM and 35.7 µM in [1]; 96.1 µM and 88.2 µM in assay [2]; 18 µM and 77.7 µM in assay [3]; 32.2 µM and 33.6 µM in assay [4]; 43.1 µM and > 71.4 µM in [5]; 27.6 µM and 29.1 µM in assay [6]. Besides, the GI50 in assay [7] is over 100 µM; in assay [8], 7.78 µM and 14.1 µM; in assay [9], 14.9 µM and 18 µM; in assay [10], 62.4 µM and > 100 µM. For the same compound, the TGI in [1], in assay [2], in assay [3], in assay [4], in assay [5] and in assay [6] was over 100 µM each time. The TGI in [7], in [8], in assay [9] and in assay [10] was over 100 µM in each case.

Take `COc1ccc(COc2cc3oc(=O)c4cc(C(C)O)ccc4c3cc2OC)cc1` (stereo not drawn): the GI50 in [1] is over 28.8 µM; in [2], 23.1 µM; in [3] it was 19.7 µM; in [4], 10.1 µM; in assay [5], 14.7 µM; in [6], 12.1 µM. In addition, the GI50 in assay [7] is over 22.7 µM; in assay [8] it was 49.7 µM; in assay [9], 2.08 µM; in [10] it was 10.2 µM. The TGI is over 100 µM in assay [1]; over 100 µM in assay [2]; over 100 µM in [3]; 49.4 µM in assay [4]; over 100 µM in assay [5]; over 40.7 µM in assay [6]. Moreover, the TGI in [7] was over 100 µM; in assay [8], over 100 µM; in assay [9], 11.1 µM; in assay [10] it was 40.2 µM.

As for `[Cl][Cu][Cl]`, the GI50 in [1], in assay [2], in assay [3], in [4], in [5] and in assay [6] was over 10 µM each time. The GI50 in [7], in assay [8], in assay [9] and in [10] was over 10 µM throughout. Also, the TGI in assay [1], in [2], in assay [3], in [4], in assay [5] and in assay [6] was over 10 µM in each case. Besides, the TGI in assay [7], in assay [8], in assay [9] and in [10] was over 10 µM each time.

With `Nc1nc(-c2ccc(Cl)cc2)nc2c1sc(=S)n2-c1ccccc1`, the GI50 was 5.54 µM in assay [1]; 1.83 µM in assay [2]; 2.75 µM in [3]; 6.5 µM in [4]; 17.3 µM in assay [5]; 2.91 µM in assay [6]. Besides, the GI50 is 7.44 µM in assay [7], 5.82 µM in [8], 1.73 µM in [9] and 2.59 µM in [10]. The TGI in [1] was over 100 µM; in assay [2] it was 3.82 µM; in assay [3], 14.7 µM; in assay [4], over 100 µM; in assay [5], over 100 µM; in assay [6] it was 10.1 µM. Moreover, the TGI in assay [7] was over 100 µM; in [8], over 100 µM; in [9], 3.72 µM; in [10], 5.67 µM.
